Earlier results on 77 molecules are cited in Sander's compilation of Henry's law constants (doi:10.1016/s0016-7037(99)00330-0).

The data set is described as follows: Henry solubility constant Hcp at 298.15 K (mol/(m3 Pa)). Conditions: reference: Plyasunov and Shock (2000); cited value.
Turning to `CC1CCCC(C)(C)C1` (configuration not stated) [1,1,3-trimethylcyclohexane], the “Henry solubility constant Hcp” value was 9.3e-06.
Regarding `CC1CCC(C)(C)C1` (configuration not stated) [1,1,3-trimethylcyclopentane], the “Henry solubility constant Hcp” value was 6.2e-06.
As for `c1ccc2c(c1)CCCC2` [1,2,3,4-tetrahydronaphthalene], the “Henry solubility constant Hcp” value is 0.0064.
Turning to `Cc1cccc(C)c1C` [1,2,3-trimethylbenzene], the “Henry solubility constant Hcp” value is 0.0026.
As to `Cc1ccc(C)c(C)c1` [1,2,4-trimethylbenzene], the “Henry solubility constant Hcp” value is 0.0016.
As to `Cc1ccccc1C` [1,2-dimethylbenzene], the “Henry solubility constant Hcp” value is 0.002.
Turning to `C1=CC=CCC=C1` [1,3,5-cycloheptatriene], the “Henry solubility constant Hcp” value was 0.0022.
With `Cc1cc(C)cc(C)c1` [1,3,5-trimethylbenzene], the “Henry solubility constant Hcp” value is 0.0013.
Take `C=CC=C` [1,3-butadiene]: the “Henry solubility constant Hcp” value is 0.00014.
Consider `C1=CCC=C1` [1,3-cyclopentadiene], for which the “Henry solubility constant Hcp” value is 0.00018.
Regarding `Cc1cccc(C)c1` [1,3-dimethylbenzene], the “Henry solubility constant Hcp” value is 0.0014.
Regarding `C1=CCC=CC1` [1,4-cyclohexadiene], the “Henry solubility constant Hcp” value is 0.001.
As to `Cc1ccc(C)cc1` [1,4-dimethylbenzene], the “Henry solubility constant Hcp” value was 0.0014.
On to `C=CCCCC=C` [1,6-heptadiene], for which the “Henry solubility constant Hcp” value is 5.6e-05.
For the molecule `C#CCCCC#C` [1,6-heptadiyne], the “Henry solubility constant Hcp” value is 0.0046.
Turning to `C#CCCCCCC#C` [1,8-nonadiyne], the “Henry solubility constant Hcp” value is 0.003.
Turning to `C=CCC` [1-butene], the “Henry solubility constant Hcp” value was 4.2e-05.
Take `C#CCC` [1-butyne]: the “Henry solubility constant Hcp” value is 0.00062.
`CCCCCCCO` [1-heptanol]: the “Henry solubility constant Hcp” value was 0.54.
With `C=CCCCCC` [1-heptene], the “Henry solubility constant Hcp” value was 2.5e-05.
Turning to `C#CCCCCC` [1-heptyne], the “Henry solubility constant Hcp” value is 0.00018.
In the case of `CCCCCCO` [1-hexanol], the “Henry solubility constant Hcp” value was 0.66.
Take `C#CCCCC` [1-hexyne]: the “Henry solubility constant Hcp” value was 0.0003.
`Cc1ccccc1C(C)C` [1-methyl-2-(1-methylethyl)-benzene]: the “Henry solubility constant Hcp” value is 0.0016.
As for `Cc1cccc(C(C)C)c1` [1-methyl-3-(1-methylethyl)-benzene], the “Henry solubility constant Hcp” value is 0.0014.
`C=C(C)C1CC=C(C)CC1` (configuration not stated) [1-methyl-4-(1-methylethenyl)-cyclohexene]: the “Henry solubility constant Hcp” value is 0.00047.
As to `CC1=CC=C(C(C)C)CC1` [1-methyl-4-(1-methylethyl)-1,3-cyclohexadiene], the “Henry solubility constant Hcp” value was 0.00051.
In the case of `Cc1ccc(C(C)C)cc1` [1-methyl-4-(1-methylethyl)-benzene], the “Henry solubility constant Hcp” value is 0.00096.
In the case of `CC1=CCC(=C(C)C)CC1` [1-methyl-4-(1-methylethylidene)-cyclohexene], the “Henry solubility constant Hcp” value was 0.00079.
With `CC1=CCCCC1` [1-methylcyclohexene], the “Henry solubility constant Hcp” value is 0.00014.
As to `C=CCCCCCCC` [1-nonene], the “Henry solubility constant Hcp” value is 1.2e-05.
As to `C#CCCCCCCC` [1-nonyne], the “Henry solubility constant Hcp” value is 9.7e-05.
With `CCCCCCCCO` [1-octanol], the “Henry solubility constant Hcp” value was 0.41.
For the molecule `C=CCCCCCC` [1-octene], the “Henry solubility constant Hcp” value is 1.1e-05.
As to `C#CCCCCCC` [1-octyne], the “Henry solubility constant Hcp” value was 0.00012.
Regarding `CCCCCO` [1-pentanol], the “Henry solubility constant Hcp” value was 0.89.
Turning to `C=CCCC` [1-pentene], the “Henry solubility constant Hcp” value was 2.4e-05.
Turning to `CCCO` [1-propanol], the “Henry solubility constant Hcp” value was 1.5.
Consider `CC(C)CC(C)(C)C` [2,2,4-trimethylpentane], for which the “Henry solubility constant Hcp” value was 3e-06.
Turning to `CC(C)(C)C#CC(C)(C)C` [2,2,5,5-tetramethyl-3-hexyne], the “Henry solubility constant Hcp” value was 3.4e-05.
Consider `CC(C)C#CC(C)(C)C` [2,2,5-trimethyl-3-hexyne], for which the “Henry solubility constant Hcp” value is 5.5e-05.
With `CC(C)CCC(C)(C)C` [2,2,5-trimethylhexane], the “Henry solubility constant Hcp” value is 2.8e-06.
Regarding `CCC#CC(C)(C)C` [2,2-dimethyl-3-hexyne], the “Henry solubility constant Hcp” value is 0.00014.
Turning to `C=C1C2CCC(C2)C1(C)C` (configuration not stated) [2,2-dimethyl-3-methylene-bicyclo[2.2.1]heptane], the “Henry solubility constant Hcp” value is 0.00023.
Consider `CCC(C)(C)C` [2,2-dimethylbutane], for which the “Henry solubility constant Hcp” value was 5.6e-06.
With `CCCC(C)(C)C` [2,2-dimethylpentane], the “Henry solubility constant Hcp” value is 3.1e-06.
With `CC(C)C(C)C(C)C` [2,3,4-trimethylpentane], the “Henry solubility constant Hcp” value is 4.3e-06.
With `CC(C)C(C)(C)O` [2,3-dimethyl-2-butanol], the “Henry solubility constant Hcp” value was 0.38.
Consider `CC(C)C(C)C` [2,3-dimethylbutane], for which the “Henry solubility constant Hcp” value is 7.6e-06.
On to `CCC(C)C(C)C` (configuration not stated) [2,3-dimethylpentane], for which the “Henry solubility constant Hcp” value is 5.7e-06.
Take `CC(C)CC(C)C` [2,4-dimethylpentane]: the “Henry solubility constant Hcp” value was 3.3e-06.
`CCC(C)O` (configuration not stated) [2-butanol]: the “Henry solubility constant Hcp” value was 0.99.
In the case of `CCC(CC)CO` [2-ethyl-1-butanol], the “Henry solubility constant Hcp” value was 0.54.
In the case of `CCCCC(CC)CO` (configuration not stated) [2-ethyl-1-hexanol], the “Henry solubility constant Hcp” value was 0.46.
On to `CCCCCC(C)O` (configuration not stated) [2-heptanol], for which the “Henry solubility constant Hcp” value is 0.41.
As for `CC=CCCCC` [2-heptene], the “Henry solubility constant Hcp” value is 2.3e-05.
For `CC#CCCCC` [2-heptyne], the “Henry solubility constant Hcp” value is 0.00049.
Take `CCCCC(C)O` (configuration not stated) [2-hexanol]: the “Henry solubility constant Hcp” value is 0.52.
As to `C=CC(=C)C` [2-methyl-1,3-butadiene], the “Henry solubility constant Hcp” value was 0.00013.
Regarding `CCC(C)CO` (configuration not stated) [2-methyl-1-butanol], the “Henry solubility constant Hcp” value was 0.71.
Turning to `C=C(C)CCC` [2-methyl-1-pentene], the “Henry solubility constant Hcp” value is 3.3e-05.
As to `CC(C)CO` [2-methyl-1-propanol], the “Henry solubility constant Hcp” value is 0.85.
For the molecule `CCC(C)(C)O` [2-methyl-2-butanol], the “Henry solubility constant Hcp” value was 0.71.
For the molecule `CC=C(C)C` [2-methyl-2-butene], the “Henry solubility constant Hcp” value is 6.7e-05.
On to `CCC#CC(C)C` [2-methyl-3-hexyne], for which the “Henry solubility constant Hcp” value is 0.00022.
Turning to `CCC(C)C` [2-methylbutane], the “Henry solubility constant Hcp” value is 7.7e-06.
In the case of `CCCCC(C)C` [2-methylhexane], the “Henry solubility constant Hcp” value was 2.9e-06.
With `CCCC(C)C` [2-methylpentane], the “Henry solubility constant Hcp” value was 5.7e-06.
`CC(C)C` [2-methylpropane]: the “Henry solubility constant Hcp” value is 9.2e-06.
As to `C=C(C)C` [2-methylpropene], the “Henry solubility constant Hcp” value is 5.7e-05.
As for `CCCCCCC(C)O` (configuration not stated) [2-octanol], the “Henry solubility constant Hcp” value was 0.35.
As to `CCCC(C)O` (configuration not stated) [2-pentanol], the “Henry solubility constant Hcp” value is 0.65.
Take `CC(C)O` [2-propanol]: the “Henry solubility constant Hcp” value is 1.2.
`CCC(C)(C)CC` [3,3-dimethylpentane]: the “Henry solubility constant Hcp” value is 5.3e-06.
On to `C#CC=C` [3-buten-1-yne], for which the “Henry solubility constant Hcp” value was 0.00041.
For the molecule `CCC(O)(CC)CC` [3-ethyl-3-pentanol], the “Henry solubility constant Hcp” value was 0.3.
Consider `CCCCC(O)CC` (configuration not stated) [3-heptanol], for which the “Henry solubility constant Hcp” value is 0.31.
